Where “and” joins values, the source holds several entries; their conditions need not be identical. Equal entries are not always repeated. Entries after “also recorded” stand apart in the source; their conditions may differ. Structures can show the parent of a compound that is named as a salt.
Assays:
[1] = Fluorescence (λf, quantum yield); type: physicochemical; conditions: for .PHI.f (fluorescence quantum yield): ethanol, excitation 450 and 460 nm, reference acridine orange
Description: Instruments for spectroscopic measurements included: Perkin-Elmer 1600 FTIR, Varian Gernini 300 NMR, Hewlett-Packard 5985 (70 eV) GC-MS, Cary 17 (UV), and Perkin-Elmer LS-5B Luminescence spectrometer. A dye laser was constructed and operated in the non-flowing (static) mode and had no tuning capability. […] Laser energy outputs were measured with an accuracy of ±5% by a Scientech 365 power and energy meter.
(§1) Light absorption, luminescence, and laser activity properties for the dyes 7 are described in Table VI. Each recorded UV absorption was restricted to the highest wave length. Fluorescence quantum yields of the dyes were determined for ethanol solutions with excitation at 450 and 460 nm by reference to acridine orange, .PHI.0.46, in ethanol; for the dye 7p the reference was R-6G, <P 0.90. Melting points were obtained from a Mel-Temp II device and were uncorrected. The solvent for ^1 H NMR spectra was chloroform-d with tetramethylsilane as an internal standard. Elemental analyses were obtained from Midwest Micro Lab, Indianapolis, Ind. and Galbraith Laboratories, Inc., Knoxville, Tenn. Solvents were removed by rotary evaporation under reduced pressure unless indicated otherwise. Column chromatography was performed on silica gel. Molecular weights were confirmed by EI-MS for the pyrrole 4j 193 and for laser dyes 7d 346, 7e 374, 7g 374, 7i 342, 7j 314 and 7x 360. IR absorption data satisfactorily supported structure assignments for the laser dyes 7.
^[b] 2 × 10^-4 M in ethanol except where noted otherwise.

[2] = UV light absorption (λmax, log ε); type: physicochemical; conditions: for log ε: solvent as for λmax (ethanol except where noted); for absorption shift: in comparison with 8-substituted peralkylated structures (7b, g, k)
Description: as §1, with “Each” for “Light absorption, luminescence, and laser activity properties for the dyes 7 are described in Table VI. Each”, “0.90. […]” for “0.90.”, “gel.” for “gel. Molecular weights were confirmed by EI-MS for the pyrrole 4j 193 and for laser dyes 7d 346, 7e 374, 7g 374, 7i 342, 7j 314 and 7x 360. IR absorption data satisfactorily supported structure assignments for the laser dyes 7.”
5 × 10^-6 M in ethanol except where noted otherwise.

.PHI.f (fluorescence quantum yield) [1]	log ε [2]	λf ([1]; 2 × 10^-4 M in ethanol)	λmax ([2]; 5 × 10^-6 M in ethanol)	SMILES	also measured
0.82	4.98	–	–	CCOC(=O)C1=C(C)C2=C(C#N)c3c(C)c(C(=O)OCC)c(C)n3[B-](F)(F)[N+]2=C1C [Compound 7aa, diethyl 1,3,5,7-tetramethyl-8-cyanopyrromethene-2,6-dicarboxylate-BF2 complex]	λf ([1]; 2 × 10^-4 M in p-dioxan): 589 nm; λmax ([2]; 2 × 10^-4 M in p-dioxan): 556 nm
0.55	4.72	–	–	CCC1=C(C)C2=C(C#N)c3c(C)c(CC)c(C)n3[B-](F)(F)[N+]2=C1C [Compound 7bb, 1,3,5,7-Tetramethyl-2,6-diethyl-8-cyanopyrromethene-BF2 complex]	λf ([1]; 2 × 10^-4 M in p-dioxan): 620 nm; λmax ([2]; 2 × 10^-4 M in p-dioxan): 580 nm
0.99	4.89	549 nm	517 nm	CCCC1=C(C)C2=C(C)c3c(C)c(CCC)c(C)n3[B-](F)(F)[N+]2=C1C [Compound 7d, 2,6-Di-n-propyl-1,3,5,7,8-pentamethylpyrromethene-BF2 complex]	–
0.90	4.92	550 nm	518 nm	CCCCC1=C(C)C2=C(C)c3c(C)c(CCCC)c(C)n3[B-](F)(F)[N+]2=C1C [Compound 7e]	–
0.67	4.85	548 nm	516 nm	CC1=C(C(C)C)C(C)=[N+]2C1=C(C)c1c(C)c(C(C)C)c(C)n1[B-]2(F)F [Compound 7f]	–
0.77	4.83	567 nm	525 nm	CC1=C(C(C)(C)C)C(C)=[N+]2C1=C(C)c1c(C)c(C(C)(C)C)c(C)n1[B-]2(F)F [Compound 7g]	–
–	> 4.8 and 4.93	560 nm	535 nm	CC1=C2C=C3CCCCC3=[N+]2[B-](F)(F)n2c1cc1c2CCCC1 [Compound 7h, 2,3,6,7-bistetramethylene-8-methylpyrromethene-BF2 complex]	–
–	> 4.8 and 4.91	552 nm	522 nm	CC1=C2CCCCC2=[N+]2C1=C(C)c1c(C)c3c(n1[B-]2(F)F)CCCC3 [Compound 7i]	–
–	> 4.8 and 4.82	535 nm	512 nm	CC1=C2C3=C(CCC3)C(C)=[N+]2[B-](F)(F)n2c(C)c3c(c21)CCC3 [Compound 7j, 1,2,6,7-bistrimethylene-3,5,8-trimethylpyrromethene-BF2 complex]	–
0.75	4.89	554 nm	521 nm	CCC1=C(CC)C(C)=[N+]2C1=C(C)c1c(CC)c(CC)c(C)n1[B-]2(F)F [Compound 7k, 1,2,6,7-tetraethyl-3,5,8-trimethylpyrromethene BF2 complex]	–
0.43	4.90	559 nm	519 nm	CC1=C(c2ccccc2)C(C)=[N+]2C1=C(C)c1c(C)c(-c3ccccc3)c(C)n1[B-]2(F)F [Compound 7l]	–
0.17	4.63	–	–	CC(=O)NC1=C(C)C2=C(C)c3c(C)c(NC(C)=O)c(C)n3[B-](F)(F)[N+]2=C1C [Compound 7m]	λf ([1]; 2 × 10^-4 M in trifluoroethanol): 542 nm; λmax ([2]; 5 × 10^-6 M in trifluoroethanol): 498 nm
0.84	4.85	522 nm	485 nm	COC1=C(C)C(C)=[N+]2C1=C(C)c1c(OC)c(C)c(C)n1[B-]2(F)F [Compound 7n, 1,7-dimethoxy-2,3,5,6,8-pentamethylpyrromethene-BF2 complex]	–
0.84	4.92	546 nm	520 nm	CCC1=C(C)C2=C(CC)c3c(C)c(CC)c(C)n3[B-](F)(F)[N+]2=C1C [Compound 7o, 1,3,5,7-tetramethyl-2,6,8-triethylpyrromethene-BF2 complex]	–
0.23	4.81	526 nm	516 nm	CCC1=C(C)C2=C(C3CCCCC3)c3c(C)c(CC)c(C)n3[B-](F)(F)[N+]2=C1C [Compound 7q, 1,3,5,7-tetramethyl-2,6-diethyl-8-cyclohexylpyrromethene-BF2 complex]	–
0.74	4.89	575 nm	543 nm	CCC1=C(C)C2=C(COC(C)=O)c3c(C)c(CC)c(C)n3[B-](F)(F)[N+]2=C1C [Compound 7r]	–
0.04	4.95	575 nm	519 nm	CCC1=C(C)C2=C(c3ccc(N(C)C)cc3)c3c(C)c(CC)c(C)n3[B-](F)(F)[N+]2=C1C [Compound 7s]	–
0.63	4.86	521 nm	497 nm	COc1ccc(C2=C3C(C)=CC(C)=[N+]3[B-](F)(F)n3c(C)cc(C)c32)cc1 [Compound 7t, 1,3,5,7-tetramethyl-8-p-methoxyphenylpyrromethene-BF2 complex]	–
0.60	5.00	564 nm	540 nm	CCC1=C(c2ccccc2)C2=Cc3c(-c4ccccc4)c(CC)c(C)n3[B-](F)(F)[N+]2=C1C [Compound 7u]	–
0.69	4.91	590 nm	552 nm	CC1=[N+]2C(=Cc3c(-c4ccccc4)c(-c4ccccc4)c(C)n3[B-]2(F)F)C(c2ccccc2)=C1c1ccccc1 [Compound 7v, 1,2,6,7-tetraphenyl-3,5-dimethylpyrromethene-BF2 complex]	–
0.61	4.92	551 nm	521 nm	CC1=[N+]2C(=Cc3c(-c4ccccc4)cc(C)n3[B-]2(F)F)C(c2ccccc2)=C1 [Compound 7w, 1,7-diphenyl-3,5-dimethylpyrromethene-BF2 complex]	–
0.84	4.93	554 nm	527 nm	CC1=C(C(C)(C)C)C(C)=[N+]2C1=Cc1c(C)c(C(C)(C)C)c(C)n1[B-]2(F)F [Compound 7x, 1,3,5,7-tetramethyl-2,6-di-tert-butylpyrromethene-BF2 complex]	fluorescence [1]: erratic effect on fluorescence; absorption shift [2]: slight bathochromic shift in absorption
0.70	4.89	554 nm	529 nm	CCC1=C(CC)C(C)=[N+]2C1=Cc1c(CC)c(CC)c(C)n1[B-]2(F)F [Compound 7y, 1,2,6,7-tetraethyl-3,5-dimethylpyrromethene-BF2 complex]	fluorescence [1]: erratic effect on fluorescence; absorption shift [2]: slight bathochromic shift in absorption
0.56	4.84	552 nm	528 nm	CC1=C(C)C(C)=[N+]2C1=Cc1c(C)c(C)c(C)n1[B-]2(F)F [Compound 7z, 1,2,3,5,6,7-hexamethylpyrromethene-BF2 complex]	fluorescence [1]: erratic effect on fluorescence; absorption shift [2]: slight bathochromic shift in absorption
–	–	–	–	CCC1=C(C)C(=Cc2[nH]c(C)c(CC)c2C)N=C1C [Compound 9, 3,5,3',5'-tetramethyl-4,4'-diethylpyrromethene hydrobromide, reference compound]	.PHI.f ([1]; solvent not stated): 4.3×10^-4
–	–	–	–	CCC1=C(C)C2=Cc3c(C)c(CC)c(C)n3[B-](CC)(CC)[N+]2=C1C [Compound 10, 1,3,5,7-tetramethyl-2,6-diethylpyrromethene-B(CH2 CH3)2 complex, reference compound]	.PHI.f ([1]; solvent not stated): 0.31
–	–	–	–	CCC1=C(C)C2=Cc3c(C)c(CC)c(C)n3[B-](F)(F)[N+]2=C1C [Compound 11]	.PHI.f ([1]; solvent not stated): 0.81
–	–	–	–	Cc1nc2n(c1C)[B-](F)(F)[n+]1c-2[nH]c(C)c1C [Compound 21-BF3]	.THETA.f ([1]; Lewis acid salt 21-BF3): 0.93; λf ([1]; Lewis acid salt 21-BF3): 377 nm

SMILES	.PHI.f (fluorescence quantum yield) [1]	log ε [2]	λf ([1]; 2 × 10^-4 M in ethanol)	λmax ([2]; 5 × 10^-6 M in ethanol)	also measured
CCC1=C(C)C2=C(C(C)C)c3c(C)c(CC)c(C)n3[B-](F)(F)[N+]2=C1C [Compound 7p, 1,3,5,7-tetramethyl-2,6-diethyl-8-isopropylpyrromethene-BF2 complex]	–	4.84	562 nm	527 nm	fluorescence [1]: large reduction in fluorescence; also recorded: absence of fluorescence; .PHI.f ([1]; with reference to R-6G .PHI. 0.90): 0.07

— patent US5446157A, “Boron difluoride compounds useful in photodynamic therapy and production of laser light” (priority 1993, dated 1995)
